Laboratory results taken from US20260053834A1, “COVALENT MODIFIERS OF AKT1 AND USES THEREOF” (Terremoto Biosciences, Inc., priority 2023, published 2026).

Columns and labels:
AKT2 = target: T1, AKT2 (Homo sapiens, UniProt P31751); assay: Live cell target engagement by NanoBRET competitive probe displacement, AKT2; type: binding; settings: transfected HEK293 cells, 2 h at 37° C., read-out: AKT2 IC50: GeoMean IC50
T1 construct: expressed in transfected cells; host or cells: HEK293

AKT1 E17K = target: T2, AKT1 E17K (Homo sapiens, UniProt P31749, E17K); assay: Live cell target engagement by NanoBRET competitive probe displacement, AKT1 E17K; type: binding; settings: transfected HEK293 cells, 2 h at 37° C., read-out: AKT1 E17K IC50: GeoMean IC50
T2 construct: expressed in transfected cells; host or cells: HEK293
T2 sequence (P31749 whole entry E17K): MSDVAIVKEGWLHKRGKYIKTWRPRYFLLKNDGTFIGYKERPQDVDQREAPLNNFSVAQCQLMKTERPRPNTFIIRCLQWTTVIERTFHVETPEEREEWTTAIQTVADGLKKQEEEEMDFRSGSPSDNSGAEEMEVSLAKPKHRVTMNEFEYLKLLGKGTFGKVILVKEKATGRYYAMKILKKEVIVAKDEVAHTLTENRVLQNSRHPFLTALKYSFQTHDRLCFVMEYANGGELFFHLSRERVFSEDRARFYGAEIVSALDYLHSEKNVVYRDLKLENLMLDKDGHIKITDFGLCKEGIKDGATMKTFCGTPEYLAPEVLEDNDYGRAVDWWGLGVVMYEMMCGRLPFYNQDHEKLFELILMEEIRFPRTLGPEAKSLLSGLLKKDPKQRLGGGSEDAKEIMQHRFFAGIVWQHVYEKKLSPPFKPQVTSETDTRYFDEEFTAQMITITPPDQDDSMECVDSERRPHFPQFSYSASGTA

[1] = system: LAPC4 prostate cancer cells, which express the AKT1 E17K allele; assay: Antiproliferative effects in LAPC4 cells (CellTiter Glo, 72 h); type: cell-based; settings: Homo sapiens, LAPC4, 72 h, read-out: LAPC4 proliferation IC50: GeoMean IC50
How it was run: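 Cells grown in IMDM with 12% FBS, seeded at 1,000 cells/well and treated with compound dilutions in DMSO for 72 h. Intracellular ATP read by luminescence. IC50 from a log(inhibitor) vs. response Hill fit.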

AKT1 WT = target: T3, AKT1 WT (Homo sapiens, UniProt P31749); assay: Live cell target engagement by NanoBRET competitive probe displacement, AKT1 WT; type: binding; settings: transfected HEK293 cells, 2 h at 37° C., read-out: AKT1 WT IC50: GeoMean IC50
T3 construct: expressed in transfected cells; host or cells: HEK293
T3 sequence (P31749 whole entry): as the sequence (P31749 whole entry E17K) above, with K17E counted along it

T1 sequence (P31751 whole entry): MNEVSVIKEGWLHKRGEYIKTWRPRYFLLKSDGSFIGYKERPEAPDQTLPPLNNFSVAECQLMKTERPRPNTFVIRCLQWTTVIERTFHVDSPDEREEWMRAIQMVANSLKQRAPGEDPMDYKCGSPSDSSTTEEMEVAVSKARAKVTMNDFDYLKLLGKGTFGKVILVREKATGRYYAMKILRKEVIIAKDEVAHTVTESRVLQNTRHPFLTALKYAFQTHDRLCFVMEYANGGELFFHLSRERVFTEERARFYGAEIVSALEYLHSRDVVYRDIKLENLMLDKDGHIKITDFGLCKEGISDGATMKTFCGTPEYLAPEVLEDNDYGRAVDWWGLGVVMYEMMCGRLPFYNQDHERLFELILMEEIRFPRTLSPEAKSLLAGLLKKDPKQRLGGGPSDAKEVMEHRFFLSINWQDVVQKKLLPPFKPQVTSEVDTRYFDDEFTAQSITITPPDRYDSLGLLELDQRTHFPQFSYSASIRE

IC50 (AKT2) [nM] | IC50 (AKT1 E17K) [nM] | IC50 [1] [nM] | IC50 (AKT1 WT) [nM] | Compound
100 to 2000 | 10 to 100 | 100 to 2000 | 10 to 100 | COc1cncc(-c2ccc3nc(-c4cccnc4N)n(-c4ccc5c(c4)CC[C@@H]5NC(=O)c4ccc(O)c(C=O)c4)c3n2)n1 [Example 80, N-[(1S)-5-[2-(2-aminopyridin-3-yl)-5-(6-methoxypyrazin-2-yl)imidazo[4,5-b]pyridin-3-yl]-2,3-dihydro-1H-inden-1-yl]-3-formyl-4-hydroxybenzamide]
100 to 2000 | 10 to 100 | ≥ 2000 | 10 to 100 | C#Cc1c(C(=O)N[C@H]2CCc3cc(-n4c(-c5cccnc5N)nc5ccc(-n6cccn6)nc54)ccc32)ccc(O)c1C=O [Example 112, N-[(1S)-5-[2-(2-aminopyridin-3-yl)-5-(pyrazol-1-yl)imidazo[4,5-b]pyridin-3-yl]-2,3-dihydro-1H-inden-1-yl]-2-ethynyl-3-formyl-4-hydroxybenzamide]
100 to 2000 | 100 to 2000 | ≥ 2000 | 100 to 2000 | Nc1ncccc1-c1nc2ccc(-n3cccn3)nc2n1-c1ccc2c(c1)C(=O)C[C@@H]2NC(=O)c1ccc(O)c(C=O)c1 [Example 85, N-[(1S)-5-[2-(2-aminopyridin-3-yl)-5-(pyrazol-1-yl)imidazo[4,5-b]pyridin-3-yl]-3-oxo-1,2-dihydroinden-1-yl]-3-formyl-4-hydroxybenzamide]
100 to 2000 | 10 to 100 | 100 to 2000 | 10 to 100 | Nc1ncccc1-c1nc2ccc(-c3cnn(C4CC4)c3)nc2n1-c1ccc2c(c1)CC[C@@H]2NC(=O)c1ccc(O)c(C=O)c1 [Example 62, N-[(1S)-5-[2-(2-aminopyridin-3-yl)-5-(1-cyclopropylpyrazol-4-yl)imidazo[4,5-b]pyridin-3-yl]-2,3-dihydro-1H-inden-1-yl]-3-formyl-4-hydroxybenzamide]
100 to 2000 | < 10 | 10 to 100 | 10 to 100 | Nc1ncccc1-c1nc2ccc(-c3ncco3)nc2n1-c1ccc2c(c1)CC[C@@H]2NC(=O)c1cc(C=O)c(O)cc1F [Example 151, N-[(1S)-5-[2-(2-aminopyridin-3-yl)-5-(1,3-oxazol-2-yl)imidazo[4,5-b]pyridin-3-yl]-2,3-dihydro-1H-inden-1-yl]-2-fluoro-5-formyl-4-hydroxybenzamide]
10 to 100 | 10 to 100 | 100 to 2000 | 10 to 100 | Nc1ncccc1-c1nc2ccc(-c3ccccc3)nc2n1-c1ccc2c(c1)CC[C@@H]2NC(=O)c1cc(C=O)c(O)cc1F [Example 16, N-[(1S)-5-[2-(2-aminopyridin-3-yl)-5-phenylimidazo[4,5-b]pyridin-3-yl]-2,3-dihydro-1H-inden-1-yl]-2-fluoro-5-formyl-4-hydroxybenzamide]
≥ 2000 | ≥ 2000 | ≥ 2000 | ≥ 2000 | CS(=O)(=O)Nc1cc(-n2cccn2)nc2c1nc(-c1cccnc1N)n2-c1ccc2c(c1)CC[C@@H]2NC(=O)c1ccc(O)c(C=O)c1 [Example 232, N-[(1S)-5-[2-(2-aminopyridin-3-yl)-7-methanesulfonamido-5-(pyrazol-1-yl)imidazo[4,5-b]pyridin-3-yl]-2,3-dihydro-1H-inden-1-yl]-3-formyl-4-hydroxybenzamide]
100 to 2000 | 10 to 100 | 100 to 2000 | 100 to 2000 | Nc1ncccc1-c1nc2ccc(N3CCOCC3)nc2n1-c1ccc2c(c1)CC[C@@H]2NC(=O)c1ccc(O)c(C=O)c1 [Example 42, N-[(1S)-5-[2-(2-aminopyridin-3-yl)-5-(morpholin-4-yl)imidazo[4,5-b]pyridin-3-yl]-2,3-dihydro-1H-inden-1-yl]-3-formyl-4-hydroxybenzamide]
≥ 2000 | 100 to 2000 | 100 to 2000 | 100 to 2000 | Cc1cc(C(=O)N[C@H]2CCc3cc(-n4c(-c5cccnc5N)nc5ccc(-c6ccccc6)nc54)ccc32)cc(C=O)c1O [Example 41, N-[(1S)-5-[2-(2-aminopyridin-3-yl)-5-phenylimidazo[4,5-b]pyridin-3-yl]-2,3-dihydro-1H-inden-1-yl]-3-formyl-4-hydroxy-5-methylbenzamide]
